Where two headings read alike, the source gives them in different places.
Assays:
[1] = target: various enzymes (Homo sapiens, UniProt Q9UK32); conditions: 1 uM
Procedure: (§1) Ambit profiling from Eurofins (formerly Discoverx) was conducted in accordance with the manufacturer's instructions.

[2] = target: various enzymes (Homo sapiens, UniProt Q9BWU1); conditions: CDK11; 1 uM
Procedure: as §1

[3] = target: various enzymes (Homo sapiens, UniProt P08581, Y1235D)
Procedure: as §1

[4] = target: various enzymes (Homo sapiens, UniProt P54756); conditions: EPHA5; 1 uM
Procedure: as §1

[5] = target: T1, various enzymes (Homo sapiens, UniProt Q12852); conditions: DLK; 1 uM
T1 sequence (Q12852 1-859): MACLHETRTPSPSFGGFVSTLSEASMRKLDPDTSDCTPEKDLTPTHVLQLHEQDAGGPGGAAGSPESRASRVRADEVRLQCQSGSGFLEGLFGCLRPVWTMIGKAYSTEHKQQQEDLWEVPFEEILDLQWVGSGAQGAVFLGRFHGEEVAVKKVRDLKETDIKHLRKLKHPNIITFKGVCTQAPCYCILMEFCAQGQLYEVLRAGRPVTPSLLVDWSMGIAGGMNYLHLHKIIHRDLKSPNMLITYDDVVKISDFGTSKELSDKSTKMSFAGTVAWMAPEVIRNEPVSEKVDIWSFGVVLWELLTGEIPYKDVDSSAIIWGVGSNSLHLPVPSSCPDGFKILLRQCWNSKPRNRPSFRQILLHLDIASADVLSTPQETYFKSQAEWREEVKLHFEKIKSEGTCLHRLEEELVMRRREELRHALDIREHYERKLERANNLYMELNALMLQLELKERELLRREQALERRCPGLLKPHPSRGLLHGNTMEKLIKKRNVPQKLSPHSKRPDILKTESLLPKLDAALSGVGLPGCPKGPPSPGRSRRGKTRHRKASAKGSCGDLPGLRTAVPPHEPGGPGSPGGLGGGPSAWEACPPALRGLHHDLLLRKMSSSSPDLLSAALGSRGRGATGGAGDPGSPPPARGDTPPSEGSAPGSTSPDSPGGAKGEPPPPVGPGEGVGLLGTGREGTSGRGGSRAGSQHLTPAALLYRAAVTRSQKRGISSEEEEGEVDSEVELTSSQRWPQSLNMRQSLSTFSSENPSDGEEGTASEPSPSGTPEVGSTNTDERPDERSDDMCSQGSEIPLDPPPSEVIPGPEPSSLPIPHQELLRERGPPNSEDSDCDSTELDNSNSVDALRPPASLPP
Procedure: as §1

[6] = target: T2, various enzymes (Homo sapiens, UniProt O14733); conditions: MKK7; 1 uM
T2 sequence (O14733 1-419): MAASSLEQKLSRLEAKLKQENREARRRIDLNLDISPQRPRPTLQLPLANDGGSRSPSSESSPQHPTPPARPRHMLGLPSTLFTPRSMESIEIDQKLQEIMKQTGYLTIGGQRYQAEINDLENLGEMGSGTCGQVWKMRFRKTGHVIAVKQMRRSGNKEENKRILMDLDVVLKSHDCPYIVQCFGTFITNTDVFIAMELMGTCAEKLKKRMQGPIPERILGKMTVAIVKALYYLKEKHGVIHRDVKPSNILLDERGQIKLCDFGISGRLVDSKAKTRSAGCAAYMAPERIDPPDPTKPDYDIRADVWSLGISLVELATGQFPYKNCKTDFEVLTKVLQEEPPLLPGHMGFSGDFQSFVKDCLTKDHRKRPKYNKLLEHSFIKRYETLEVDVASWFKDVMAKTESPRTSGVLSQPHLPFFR
Procedure: as §1

[7] = target: various enzymes (Homo sapiens, UniProt P00533); conditions: EGFR; 1 uM
Procedure: as §1

[8] = target: various enzymes (Homo sapiens, UniProt O14578); conditions: CIT; 1 uM
various enzymes (Homo sapiens, UniProt O14578), sequence (O14578 whole entry): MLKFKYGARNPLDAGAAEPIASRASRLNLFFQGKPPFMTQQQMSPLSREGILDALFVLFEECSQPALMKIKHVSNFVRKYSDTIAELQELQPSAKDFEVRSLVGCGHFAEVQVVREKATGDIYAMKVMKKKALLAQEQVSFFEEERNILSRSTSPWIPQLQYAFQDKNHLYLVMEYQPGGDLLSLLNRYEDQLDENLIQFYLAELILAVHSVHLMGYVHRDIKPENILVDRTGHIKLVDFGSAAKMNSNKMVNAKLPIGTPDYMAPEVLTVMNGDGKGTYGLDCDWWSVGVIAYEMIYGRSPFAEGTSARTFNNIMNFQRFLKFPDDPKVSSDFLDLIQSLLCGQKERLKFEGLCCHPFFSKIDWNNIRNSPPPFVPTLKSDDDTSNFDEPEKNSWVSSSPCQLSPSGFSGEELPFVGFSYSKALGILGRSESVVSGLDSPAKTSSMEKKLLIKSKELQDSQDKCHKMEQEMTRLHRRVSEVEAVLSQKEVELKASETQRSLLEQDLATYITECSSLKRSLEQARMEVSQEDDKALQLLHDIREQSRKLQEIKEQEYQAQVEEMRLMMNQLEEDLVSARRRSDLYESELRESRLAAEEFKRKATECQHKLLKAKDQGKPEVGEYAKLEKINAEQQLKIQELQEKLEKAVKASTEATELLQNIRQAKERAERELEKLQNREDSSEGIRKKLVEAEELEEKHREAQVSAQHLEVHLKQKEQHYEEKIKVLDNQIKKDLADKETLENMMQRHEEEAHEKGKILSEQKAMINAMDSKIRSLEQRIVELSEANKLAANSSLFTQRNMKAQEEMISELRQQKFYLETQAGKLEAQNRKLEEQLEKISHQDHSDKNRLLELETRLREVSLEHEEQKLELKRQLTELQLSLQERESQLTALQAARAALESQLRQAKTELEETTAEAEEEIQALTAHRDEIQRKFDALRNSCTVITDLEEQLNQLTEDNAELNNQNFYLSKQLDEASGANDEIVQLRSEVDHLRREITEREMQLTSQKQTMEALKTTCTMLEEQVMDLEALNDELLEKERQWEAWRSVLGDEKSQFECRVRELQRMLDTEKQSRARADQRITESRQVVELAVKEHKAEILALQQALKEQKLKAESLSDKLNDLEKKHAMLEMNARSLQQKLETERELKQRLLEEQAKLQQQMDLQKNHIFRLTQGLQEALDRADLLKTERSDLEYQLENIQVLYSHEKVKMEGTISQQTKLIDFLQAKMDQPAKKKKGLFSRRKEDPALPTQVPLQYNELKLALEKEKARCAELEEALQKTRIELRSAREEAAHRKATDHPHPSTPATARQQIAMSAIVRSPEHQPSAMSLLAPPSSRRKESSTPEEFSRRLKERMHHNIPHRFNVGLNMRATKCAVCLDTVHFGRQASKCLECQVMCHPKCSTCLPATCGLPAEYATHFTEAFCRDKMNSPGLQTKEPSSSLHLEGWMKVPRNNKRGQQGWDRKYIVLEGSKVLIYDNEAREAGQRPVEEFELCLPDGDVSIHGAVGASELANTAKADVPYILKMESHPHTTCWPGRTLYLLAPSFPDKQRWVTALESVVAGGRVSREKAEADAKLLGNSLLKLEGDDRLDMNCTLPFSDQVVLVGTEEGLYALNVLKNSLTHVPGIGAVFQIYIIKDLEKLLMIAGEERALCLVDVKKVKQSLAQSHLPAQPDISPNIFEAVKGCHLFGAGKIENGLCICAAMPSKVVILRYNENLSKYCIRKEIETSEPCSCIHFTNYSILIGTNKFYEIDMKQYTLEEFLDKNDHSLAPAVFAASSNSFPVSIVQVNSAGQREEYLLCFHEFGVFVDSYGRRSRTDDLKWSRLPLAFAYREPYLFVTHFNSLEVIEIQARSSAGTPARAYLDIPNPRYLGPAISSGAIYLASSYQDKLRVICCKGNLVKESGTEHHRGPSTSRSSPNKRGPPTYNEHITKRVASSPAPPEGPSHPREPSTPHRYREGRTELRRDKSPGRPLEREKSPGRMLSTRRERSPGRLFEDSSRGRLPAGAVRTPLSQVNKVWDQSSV
Procedure: as §1

[9] = target: T3, various enzymes (Homo sapiens, UniProt O14757); conditions: CHEK1; 1 uM
T3 sequence (O14757 1-476): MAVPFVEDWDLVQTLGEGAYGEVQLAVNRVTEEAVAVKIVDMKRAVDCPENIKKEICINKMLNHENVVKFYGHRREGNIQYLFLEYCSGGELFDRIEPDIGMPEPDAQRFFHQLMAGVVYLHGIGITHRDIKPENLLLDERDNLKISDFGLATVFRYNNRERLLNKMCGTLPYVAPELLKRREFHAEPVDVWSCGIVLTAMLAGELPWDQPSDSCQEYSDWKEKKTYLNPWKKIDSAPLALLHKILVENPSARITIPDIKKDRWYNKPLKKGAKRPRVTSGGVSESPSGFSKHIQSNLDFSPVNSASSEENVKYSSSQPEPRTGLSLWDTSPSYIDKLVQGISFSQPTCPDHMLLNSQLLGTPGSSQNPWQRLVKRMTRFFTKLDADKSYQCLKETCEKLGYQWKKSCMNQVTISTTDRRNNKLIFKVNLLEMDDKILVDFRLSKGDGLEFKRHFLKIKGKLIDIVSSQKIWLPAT
Procedure: as §1

[10] = target: T4, various enzymes (Homo sapiens, UniProt Q13043); conditions: MST1; 1 uM
T4 sequence (Q13043 1-487): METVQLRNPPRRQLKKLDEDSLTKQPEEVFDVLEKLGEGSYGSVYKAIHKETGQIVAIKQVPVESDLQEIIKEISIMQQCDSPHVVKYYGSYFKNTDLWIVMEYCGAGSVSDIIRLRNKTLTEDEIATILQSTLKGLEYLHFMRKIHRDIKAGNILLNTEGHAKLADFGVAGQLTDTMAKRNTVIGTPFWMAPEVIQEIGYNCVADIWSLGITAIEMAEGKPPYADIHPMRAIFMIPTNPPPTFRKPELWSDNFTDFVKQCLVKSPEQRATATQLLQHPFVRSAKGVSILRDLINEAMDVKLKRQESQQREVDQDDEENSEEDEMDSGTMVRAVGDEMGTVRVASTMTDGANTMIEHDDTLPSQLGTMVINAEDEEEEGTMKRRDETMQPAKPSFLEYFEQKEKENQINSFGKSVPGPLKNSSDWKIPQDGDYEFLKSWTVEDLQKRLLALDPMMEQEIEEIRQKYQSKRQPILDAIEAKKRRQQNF
Procedure: as §1

[11] = target: various enzymes (Homo sapiens, UniProt P00533, L861Q)
Procedure: as §1

various enzymes (Homo sapiens, UniProt Q9UK32), sequence (Q9UK32 whole entry): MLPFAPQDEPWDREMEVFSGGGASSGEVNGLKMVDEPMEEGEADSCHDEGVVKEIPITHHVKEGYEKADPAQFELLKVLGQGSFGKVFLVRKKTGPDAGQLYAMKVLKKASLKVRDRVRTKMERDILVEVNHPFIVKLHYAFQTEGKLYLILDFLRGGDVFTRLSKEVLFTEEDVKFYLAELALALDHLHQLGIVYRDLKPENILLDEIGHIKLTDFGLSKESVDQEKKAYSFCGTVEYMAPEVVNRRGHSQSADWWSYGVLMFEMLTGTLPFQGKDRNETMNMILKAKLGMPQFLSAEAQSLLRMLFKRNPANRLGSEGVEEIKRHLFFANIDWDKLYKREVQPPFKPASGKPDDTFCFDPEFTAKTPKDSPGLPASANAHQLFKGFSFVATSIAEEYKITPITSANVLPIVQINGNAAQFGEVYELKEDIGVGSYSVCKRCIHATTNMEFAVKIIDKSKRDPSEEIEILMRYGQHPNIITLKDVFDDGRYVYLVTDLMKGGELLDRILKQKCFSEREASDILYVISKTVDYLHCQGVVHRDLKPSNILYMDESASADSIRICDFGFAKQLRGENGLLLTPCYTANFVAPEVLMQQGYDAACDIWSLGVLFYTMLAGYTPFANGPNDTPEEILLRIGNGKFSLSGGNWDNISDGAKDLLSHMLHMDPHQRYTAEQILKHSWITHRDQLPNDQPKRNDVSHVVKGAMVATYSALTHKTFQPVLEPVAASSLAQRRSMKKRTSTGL
various enzymes (Homo sapiens, UniProt P54756), sequence (P54756 25-1037): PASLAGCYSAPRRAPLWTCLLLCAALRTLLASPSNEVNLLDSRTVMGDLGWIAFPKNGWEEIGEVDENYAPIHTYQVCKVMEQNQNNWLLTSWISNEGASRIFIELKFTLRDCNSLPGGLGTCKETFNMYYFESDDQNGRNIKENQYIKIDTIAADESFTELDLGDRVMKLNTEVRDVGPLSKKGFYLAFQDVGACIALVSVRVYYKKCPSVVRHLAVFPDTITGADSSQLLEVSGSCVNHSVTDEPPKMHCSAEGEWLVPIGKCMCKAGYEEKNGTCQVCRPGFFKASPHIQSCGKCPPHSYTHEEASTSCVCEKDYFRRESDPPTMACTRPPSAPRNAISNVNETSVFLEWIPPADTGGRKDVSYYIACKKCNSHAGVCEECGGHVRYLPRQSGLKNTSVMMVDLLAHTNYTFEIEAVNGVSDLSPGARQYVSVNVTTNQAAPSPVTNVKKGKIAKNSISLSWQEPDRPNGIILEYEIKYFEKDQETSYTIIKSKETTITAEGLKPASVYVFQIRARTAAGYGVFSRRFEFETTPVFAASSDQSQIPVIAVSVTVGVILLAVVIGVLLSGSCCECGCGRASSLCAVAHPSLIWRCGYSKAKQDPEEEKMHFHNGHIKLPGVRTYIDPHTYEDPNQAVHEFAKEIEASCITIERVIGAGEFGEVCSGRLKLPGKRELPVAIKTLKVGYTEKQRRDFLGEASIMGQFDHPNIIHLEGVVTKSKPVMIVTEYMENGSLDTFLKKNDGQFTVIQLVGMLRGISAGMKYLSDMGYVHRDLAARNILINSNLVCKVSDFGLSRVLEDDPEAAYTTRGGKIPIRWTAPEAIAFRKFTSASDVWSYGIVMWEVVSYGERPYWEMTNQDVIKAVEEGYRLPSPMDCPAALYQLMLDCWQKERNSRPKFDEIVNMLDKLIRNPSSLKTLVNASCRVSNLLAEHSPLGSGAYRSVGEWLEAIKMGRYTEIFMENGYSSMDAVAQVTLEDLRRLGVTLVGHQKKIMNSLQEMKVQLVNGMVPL
various enzymes (Homo sapiens, UniProt Q9BWU1), sequence (Q9BWU1 whole entry): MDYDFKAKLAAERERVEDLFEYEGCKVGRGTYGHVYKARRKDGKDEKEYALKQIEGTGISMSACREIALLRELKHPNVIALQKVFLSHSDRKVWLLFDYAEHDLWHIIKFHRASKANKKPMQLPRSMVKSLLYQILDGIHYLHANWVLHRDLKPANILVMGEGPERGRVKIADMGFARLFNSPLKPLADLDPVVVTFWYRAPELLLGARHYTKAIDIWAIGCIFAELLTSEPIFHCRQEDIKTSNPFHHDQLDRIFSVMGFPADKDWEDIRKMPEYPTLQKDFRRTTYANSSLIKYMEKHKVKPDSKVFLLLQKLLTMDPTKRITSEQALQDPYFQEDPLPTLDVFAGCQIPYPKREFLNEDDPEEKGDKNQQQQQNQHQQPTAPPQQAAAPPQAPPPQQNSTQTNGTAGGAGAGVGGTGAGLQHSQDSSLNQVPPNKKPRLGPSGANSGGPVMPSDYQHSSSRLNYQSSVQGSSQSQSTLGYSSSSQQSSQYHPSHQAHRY

Which results are given for `CN1Cc2nn(C)cc2-c2cnc3[nH]cc(c3c2)-c2cnn(c2)CCCC1=O` [Compound 41, (Z)-31,5-dimethyl-11H,21H,31H-5-aza-2(3,5)-pyrrolo[2,3-b]pyridina-1(4,1),3(4,3)-dipyrazolacyclononaphan-6-one]?
Ambit profiling ([1]; RSK4(Kin.Dom.1-N-terminal)): 5.6; Ambit profiling ([1]; RSK4(Kin.Dom.2-C-terminal)): 63; Ambit profiling [2]: 84; Ambit profiling ([3]; MET(Y12350), 1 uM): 44; Ambit profiling [4]: 58; Ambit profiling [5]: 23; Ambit profiling [6]: 28; Ambit profiling [7]: 86; Ambit profiling [8]: 99; Ambit profiling [9]: 100; Ambit profiling [10]: 4.7; Ambit profiling ([11]; EGFR(L861Q), 1 uM): 100

For `CN1Cc2nn(C)c(C#N)c2-c2cnc3[nH]cc(c3c2)-c2cn(nc2C(F)(F)F)CCCC1=O` [Compound 48, (Z)-31,5-dimethyl-6-oxo-13-(trifluoromethyl)-11H,21H,31H-5-aza-2(3,5)-pyrrolo[2,3-b]pyridina-1(4,1),3(4,3)-dipyrazolacyclononaphane-35-carbonitrile], which Ambit profiling ([1]; RSK4(Kin.Dom.1-N-terminal)) is on record?
The Ambit profiling was 7.5.

And the Ambit profiling ([1]; RSK4(Kin.Dom.2-C-terminal))?
Its Ambit profiling is 69.

And the Ambit profiling [2]?
Its Ambit profiling is 100.

And the Ambit profiling [3]?
The Ambit profiling was 51.

And the Ambit profiling [4]?
The Ambit profiling was 97.

What about the Ambit profiling [5] of the same compound?
The Ambit profiling was 100.

What about the Ambit profiling [6] of the same compound?
Its Ambit profiling is 99.

What about the Ambit profiling [7] of the same compound?
The Ambit profiling was 76.

And the Ambit profiling [8]?
Its Ambit profiling is 74.

And the Ambit profiling [9]?
Its Ambit profiling is 93.

And the Ambit profiling [10]?
Its Ambit profiling is 100.

What about the Ambit profiling [11] of the same compound?
Its Ambit profiling is 59.
